In article PMC7316822 (Scientific Reports, 2020):
Values belong to the compound of their own block, whether it stands above or below them.

Columns and labels:
A549 cells = test: MTT cell viability, A549; assay type: cell-based, human; conditions: A549, 0–200 μM, 72 h
Protocol: The cytotoxicity studies of selected synthesized compounds were accessed using standard MTT assay[16],[58],[59]. Briefly, 5000–6000 cells/well were plated in 96-well cell culture plate and next day cells were treated with selected compounds (0–200 μM) for 72 h. After 72 h incubation, the culture medium was removed and after washing with phosphate buffer saline (pH 7.4) cells were incubated with MTT solution (a mixture of 100 µl in complete medium and 25 µl of MTT solution taken from 5 mg/ml stock), at 37 °C in the CO2 incubator. Afterward, the resultant formazan crystals were dissolved in 150–200 µl of DMSO and the absorbance of the reaction product was measured at 570 nm using a multiplate ELISA reader (BioRad). The percentage of cell viability was calculated and plotted as a function of RA concentration.

MARK4 [1] = target: T1, MARK4 (Homo sapiens, UniProt Q96L34); test: Steady-state fluorescence quenching binding studies; conditions: for Kq (bimolecular quenching rate constant): Kq=Ksv/τ0; for ∆G: van't Hoff equation
T1 construct: made in house
T1 sequence (Q96L34 1-752): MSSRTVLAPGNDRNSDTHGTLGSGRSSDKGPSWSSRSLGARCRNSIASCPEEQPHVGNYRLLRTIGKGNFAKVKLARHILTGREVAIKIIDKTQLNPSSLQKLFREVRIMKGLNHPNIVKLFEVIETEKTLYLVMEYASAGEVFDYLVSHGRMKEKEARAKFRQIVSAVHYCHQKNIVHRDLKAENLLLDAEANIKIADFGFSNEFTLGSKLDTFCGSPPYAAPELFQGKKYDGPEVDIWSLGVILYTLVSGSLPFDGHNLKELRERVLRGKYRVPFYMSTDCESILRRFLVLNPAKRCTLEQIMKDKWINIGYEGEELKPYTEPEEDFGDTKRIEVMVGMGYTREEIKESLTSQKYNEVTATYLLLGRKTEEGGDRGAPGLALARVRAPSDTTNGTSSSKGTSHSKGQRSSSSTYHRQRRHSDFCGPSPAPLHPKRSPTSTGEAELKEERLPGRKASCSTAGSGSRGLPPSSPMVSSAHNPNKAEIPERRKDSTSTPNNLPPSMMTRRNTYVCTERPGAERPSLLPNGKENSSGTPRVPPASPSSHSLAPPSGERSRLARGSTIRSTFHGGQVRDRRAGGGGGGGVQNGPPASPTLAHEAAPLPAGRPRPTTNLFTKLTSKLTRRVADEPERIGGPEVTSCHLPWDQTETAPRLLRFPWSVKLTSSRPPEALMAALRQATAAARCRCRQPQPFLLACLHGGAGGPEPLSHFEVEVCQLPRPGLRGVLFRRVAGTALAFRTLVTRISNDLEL
Protocol: Fluorescence quenching experiments were carried out on Jasco FP-6200 spectrofluorometer attached with an external water bath which serves as a temperature controller. The experiment was carried out at three different temperatures in triplicates. The protein concentration was kept constant at 4 µM while the ligand was titrated in the ratio of 1:9 at all three temperatures (288 K, 298 K, and 305 K). The fluorescence intensities were corrected for the inner filter effect according to Chi & Liu, 2011[57] the following equation:1 Fcorrected=Fobservede^(Aex+Aobs)/2
Aex and Aobs are the absorption of the system at excitation and emission wavelengths, respectively. The fluorescence intensities were corrected after taking filter effect into account and all the reported spectra are the subtracted spectra taking fluorescence of ligand alone. Fluorescence quenching data was further analyzed employing Stern-Volmer, modified Stern-Volmer and van’t Hoff equation.
To analyze the quenching data, Stern Volmer equation (Eq. 2) was deployed to find the Stern-Volmer constant:2 F0/F=1+Ksv[C] where F0 & F are fluorescence intensity of MARK4 in the absence and presence of RA, [C] is the concentration of RA. Ksv refers to Stern–Volmer constant.
The Ksv value decreases with increasing temperature for static quenching while the opposite effect is observed for dynamic quenching. […] Thus, we can say that the MARK4-RA complex formation is driven by the dynamic mode of quenching. The mode of quenching was further confirmed from the value of bimolecular quenching rate constant, Kq, which was calculated as per Eq. 33 Kq=Ksv/τ0 τo refers to the average integral fluorescence lifetime of tryptophan and is reported to be 2.7 × 10^-9 s.
Further, decrease in fluorescence in the presence of RA was analyzed by modified Stern-Volmer equation (Eq. 4)[63],[64].4 logF0−F/F=logK+nlog[C]
Using van’t Hoff equation (Eq. 5)[65], thermodynamic parameters for ligand-protein interaction such as Gibbs free energy change (∆G), enthalpy change (∆H) and entropy change (∆S) can be calculated.5 ΔG=−RTLnK=ΔH−TΔS K is the binding constant, ∆H is enthalpy change, ∆G is Gibbs free energy change, ∆S is entropy change, and R is the universal gas constant (1.987 cal mol^−1 K^−1). The experimental fitting of data as per Eq. 5 is shown in Fig. 6C […]. The slope of this plot gives the value of -∆H/R, and the intercept giving the value of ∆S/R.“T”.

MARK4 [2] = test: MARK4 protein expression by western blot; assay type: cell-based, human; conditions: MDA-MB-231 cells, IC50 concentration, 48 h, immunoblotting
Protocol: MDA-MB-231 vehicle control or RA treated cells were lysed in RIPA cell lysis buffer (Thermo Fisher Scientific, USA). Total protein was isolated and quantified by Bicinchoninic acid assay kit. Approximately 30–40 μg of whole-cell protein was diluted with 6X Laemmli’s buffer, boiled for 3–5 min and resolved using 12% SDS-polyacrylamide electrophoresis under reducing conditions. The resolved polypeptides were transferred to polyvinylidene fluoride (PVDF) membrane using blotting and identified using protein-specific primary antibodies and horseradish peroxidase conjugated secondary antibodies. Luminol was used as a chemiluminescent substrate for HRP[56].

MDA-MB-231 cells [3] = test: MTT cell viability, MDA-MB-231; assay type: cell-based, human; conditions: MDA-MB-231, 0–200 μM, 72 h
MDA-MB-231 cells [4] = test: Cell apoptosis assay (Annexin-V/PI staining); assay type: cell-based, human; conditions: 72 h
Protocol: Apoptosis inducing properties of RA was studied using Annexin-V/PI staining as described previously[58],[60]. In brief, cells were treated with IC50 and 2 × IC50 doses of RA for 72 h at 37 °C, while control cells were treated with cell culture media only or vehicle control. After 72 h incubation, ~1.0–1.5 × 10^6 cells were collected, washed three times with PBS and stained using FITC labeled Annexin-V and PI (BD-Biosciences, USA). Stained cells were analyzed using BD LSR II Flow Cytometry Analyzer and FlowJo.

MARK4 [5] = target: T1, MARK4; test: ATPase enzyme inhibition assay (malachite green); assay type: biochemical; conditions: RA 0–18 µM, ATP 200 µM, MARK4 4 µM, 25 °C, 1 hour
Protocol: To see the inhibitory effect of RA on MARK4, an ATPase assay was carried out in the presence of increasing concentrations of RA. Freshly prepared ATP (200 µM) was added to MARK4 (4 µM) and final reaction mixture of 100 μl was incubated at 25 °C for 1 hour. Malachite green (200 μl) was further added to the reaction mixture to stop the reaction followed by incubation of samples at room temperature for 20–25 minutes for the development of color. From the final reaction mixture, 100 μl was transferred to a 96-well plate in triplicates to measure spectrophotometrically at 620 nm.

phosphorylation of tau = test: Tau-phosphorylation assay (flow cytometry); assay type: cell-based, human; conditions: SH-SY5Y cells, IC50 and 2 × IC50 doses, 48 h, vs untreated cells
Protocol: To see the effect of RA treatment on the activity of MARK4, Tau-phosphorylation studies were performed as per the previously published protocol. Briefly, SH-SY5Y cells were incubated with IC50 and 2 × IC50 doses of RA. Approximately, 10^6 cells were collected after 48 h treatment, washed with PBS, fixed and incubated with anti-tau antibodies at 25 °C for 2–4 hrs. Following the incubation, cells were washed and analyzed by flow cytometry.

MARK4 [6] = target: T1, MARK4; test: Isothermal titration calorimetry; assay type: binding
Protocol: ITC measurements were done at 25 °C on a VP-ITC microcalorimeter from MicroCal, Inc (GE, MicroCal, USA). The first injection was a false one of 2 s with other injections set at 10 s. The sample cell was filled with MARK4 with reference cell with a reference buffer and a syringe containing 500 µM RA was titrated into MARK4. MicroCal Origin 8.0 was used to analyze the obtained data.

[7] = Binding constant (K), fluorescence quenching studies, temperature not given
[8] = van't Hoff plot, 288, 298 and 305 K

SMILES: O=C(/C=C/c1ccc(O)c(O)c1)O[C@H](Cc1ccc(O)c(O)c1)C(=O)O [Rosmarinic acid]
cell growth / viability (A549 cells): significantly inhibited the growth
Ksv (Stern-Volmer constant) (MARK4 [1]; 288 K): 11.5 10^5 M^−1
TΔS° (MARK4 [1]; 288 K): -12.0468 kcal/mol
n (number of binding sites) (MARK4 [1]; 288 K): 1.34
Kq (bimolecular quenching rate constant) (MARK4 [1]; 288 K): 4.25 10^14M^-1 s^-1
binding constant (K) (MARK4 [1]; 288 K, double log relation): 5e+06 M⁻¹
∆G (MARK4 [1]; 288 K): -8.956 kcal/mol
Ksv (Stern-Volmer constant) (MARK4 [1]; 298 K): 24.9 10^5 M^−1
TΔS° (MARK4 [1]; 298 K): -12.4651 kcal/mol
n (number of binding sites) (MARK4 [1]; 298 K): 1.22
Kq (bimolecular quenching rate constant) (MARK4 [1]; 298 K): 9.22 10^14M^-1 s^-1
binding constant (K) (MARK4 [1]; 298 K, double log relation): 2e+06 M⁻¹
∆G (MARK4 [1]; 298 K): -8.538 kcal/mol
Ksv (Stern-Volmer constant) (MARK4 [1]; 305 K): 29.4 10^5 M^−1
TΔS° (MARK4 [1]; 305 K): -12.7579 kcal/mol
n (number of binding sites) (MARK4 [1]; 305 K): 1.10
Kq (bimolecular quenching rate constant) (MARK4 [1]; 305 K): 10.88 10^14M^-1 s^-1
binding constant (K) (MARK4 [1]; 305 K, double log relation): 700000 M⁻¹
∆G (MARK4 [1]; 305 K): -8.245 kcal/mol
Kd (MARK4 [1]; [7]): 0.1 µM
Kd (MARK4 [1]; K (binding constant), 288 K, modified Stern-Volmer): 0.2 µM
Kd (MARK4 [1]; K (binding constant), 298 K, modified Stern-Volmer): 0.5 µM
Kd (MARK4 [1]; K (binding constant), 305 K, modified Stern-Volmer): 1.43 µM
∆H (MARK4 [1]; [8]): -21.003 kcal/mol
∆S (MARK4 [1]; [8]): −41.82 calmol^−1K^−1
protein expression level of MARK4 (MARK4 [2]): decreases the expression of MARK4
cell growth / viability (MDA-MB-231 cells [3]): significantly inhibited the growth
apoptotic cells (MDA-MB-231 cells [4]; MDA-MB-231, 2 × IC50 concentration): 15.90%
apoptotic cells (MDA-MB-231 cells [4]; MDA-MB-231, IC50 concentration): 9.0%
IC50 (MARK4 [5]): 6.2 µM
phosphorylation of tau (phosphorylation of tau): decreases phosphorylation of tau
Kd (MARK4 [6]): 0.227 µM
∆S (MARK4 [6]; ITC, 25 °C): −26.4 cal.mol^−1K^−1

SMILES: COc1cc(C=O)ccc1O [Vanillin]
Kd (MARK4 [1]; [7]): 6.21 µM

binding constant (K) (MARK4 [1]; fluorescence quenching studies, temperature not given): 50 M⁻¹
SMILES: COc1cc(/C=C/C(=O)O)ccc1O [Ferulic Acid]

SMILES: O=c1c(O)c(-c2ccc(O)c(O)c2)oc2cc(O)cc(O)c12 [Quercetin]
Kd (MARK4 [1]; [7]): 9760 µM

SMILES: O=c1oc2c(O)c(O)cc3c(=O)oc4c(O)c(O)cc1c4c23 [Ellagic Acid]
Kd (MARK4 [1]; [7]): 9900 µM
